Source: US8809368B2, “Compounds affecting gap junction activity” (Kansas State University Research Foundation, priority 2006, dated 2014)
Where “and” joins values, the source holds several entries; their conditions need not be identical. Identical values can stand only once.

How the values were obtained:
[1] = tested on: MDA-MB-453 human breast cancer cells; assay: Soft agar colony growth, MDA-MB-453 cells; format: cell-based; details: for effect on breast cancer cell colony growth: Table 2
Experimental: FIG. 3(A) MDA-MB-453 and (B) T47D human breast cancer cells were treated with 10 μM of various quinolines for 7 days. Base agar plates were prepared containing 0.8% agar and 0.4% agar in Ham's F12. Cells (5×10^4 cells/33 mm well) were suspended in 100 μl of Ham's F12 with 0.4% agar and plated. These plates were maintained at 37° C. for 7 days and examined for the presence of colonies. Individual colonies of 40 μm or greater were examined. […] However, PQ3 caused a 2.3-fold increase in colony growth in MDA-MB-453 cells and PQ2 caused a 2.6-fold increase in T47D colony growth compared to DMSO. FIGS. 7 and 8 show MDA-MB-453 and T47D colony growth for various concentrations of PQ1 and SA tested for 7 days. The procedures are generally as described above. The cell colony growth decreased using 10 and 100 nM PQ1 for both cell types. Colony Growth Assay: T47D human breast cancer cells were treated with PQ1. Base agar plates were prepared containing 0.8% agar and 0.4% agar in Ham's F12. Cells (5×10^4 cells/33 mm2 well) were suspended in 100 μl of Ham's F12 with 0.4% agar and plated. These plates were maintained at 37° C. for 7 days and examined for the presence of colonies. Individual colonies of 40 um or greater were examined.

HT29 = assay: Gap junction intercellular communication, HT29 colon cancer cells; format: cell-based; details: Table 3
MDA-MB-453 cells = assay: Gap junction activity (GJIC), flow cytometry of dye coupling, MDA-MB-453 cells; format: cell-based, human; details: for effect on gap junction intercellular communication: Table 1
Experimental: FIG. 4(A) MDA-MB-453 and (B) T47D cells were treated with low (500 nM) and high (10 μM) concentrations of PQs for 24 hours. Monolayers of acceptor cell population were grown on 25-cm flasks in the presence of Vibrant DiD. Vybrant DiD in acceptor cells is not able to pass through the gap junctions because of its hydrophobic property. Single cell suspensions of donor treated cells were prepared, labeled with 0.05 μg/ml calcein-AM, incubated at 37 C for 5 minutes. Quantification of dye coupling between the donor and acceptor cells was assessed by dual-excitation flow cytometry. […] Cells treated with 10 μM PQ3 have approximately 40-50% decrease in gap junction activity compared control or DMSO.

R28 cells = assay: Dye transfer/scrape loading gap junction assay in R28 cells; format: cell-based, rat; details: 10 μM for 40 minutes
Experimental: To determine the effects of the compounds of the invention on gap junctions, […] R28 cells and lucifer yellow dye and rhodamine dextran were used to study gap junction. (Das, S.; Lauer, J.; Barnett, M.; Lin, D.; Akoev, V.; Battina, S.; Hua, D. H.; Takemoto, D. J. PKCγ phosphorylates connexin50 on serine-430. A presentation at 2006 ARVO Annual Meeting, Apr. 30-May 4, 2006, Fort Lauderdale, Fla.). […] The cells were treated with different compounds as shown @ 10 μM for 40 minutes. A mixture of lucifer yellow (LY) and rhodamine dextran (RD) was added to the cells at the center of the coverslip. Two cuts across the coverslip were made to form a transient tear in the plasma membranes of the cells to permit dye transfer through gap junctions. Cells were incubated with the dye for 20 minutes, then fixed and examined by fluorescent microscopy. For quantitative analysis the extent of dye transfer was estimated by counting the number of LY and RD labeled cells in the microscopic field and graphed. […] PQ3 is useful as a drug having reduced gap junction inhibitory activity. The gap junction activity of other compounds of the invention may be tested as described herein without the use of undue experimentation.
Gap junction activity assay. R28 cells were grown to 90% confluency on coverslips. They were treated with PQ1 at 10 μM for 40 min. A mixture of 1% each, in PBS, Lucifer yellow (LY) and Rhodamine Dextran (RD) (Molecular Probes, Eugene, Oreg.) were added to the cells at the center of the coverslip. Two cuts across the coverslip were made to form a transient tear in the plasma membranes of the cells to permit dye entry into cells. Cells were incubated with 2.5 μl of both of the dyes for 20 min, then fixed in 2.5% paraformaldehyde, washed in PBS and examined by fluorescent microscopy using a Nikon C1 confocal microscopy. For quantitation, the extent of dye transfer was calculated by counting the number of LY-labeled cells from the initial scrape with subtraction of RD-labeled cells, as a cell damage control, in the microscopic field. Four points per slide were photographed. The experiments were repeated six times, and data are means±SEM.

SMILES | colony growth attenuation ([1]; 10 μM, 7 days, compared to control) | cell colony growth ([1]; 10 and 100 nM, 7 days) | effect on breast cancer cell colony growth [1] | effect on gap junction intercellular communication (HT29) | increase of gap junction activity (MDA-MB-453 cells; MDA-MB-453, 500 nM, 24 hours, compared to control) [fold] | increase in GJIC (MDA-MB-453 cells; MDA-MB-453, FIG. 4, 24 hours) | effect on gap junction intercellular communication (MDA-MB-453 cells; MDA-MB-453, 500 nM) | block of lucifer yellow dye transfer through gap junctions (R28 cells; compared to untreated control cells) | decrease in gap junction activity (GJIC) (MDA-MB-453 cells; 10 μM, 24 hours, compared to control or DMSO) | effect on gap junction intercellular communication (MDA-MB-453 cells; MDA-MB-453, concentration not given) | inhibition at 10 µM (R28 cells; Rattus norvegicus, R28, 40 min, as compared with the control, read-out: inhibitory activity on gap junction dye transfer) [%]
COc1cc(NCCCN)c2nccc(C)c2c1Oc1cccc(C(F)(F)F)c1.O=C(O)CCC(=O)O [PQ1, 6-Methoxy-8-[(3-aminopropyl)amino]-4-methyl-5-(3-trifluoromethylphenyloxy) quinoline succinic acid] | 80-95% | decreased | Decrease | No effect | 1.5 | 20-50% | Increase | hardly any passage of the dye | – | – | –
COc1cc(N)c2nccc(C)c2c1Oc1cccc(C(F)(F)F)c1 [PQ3, 8-Amino-6-methoxy-4-methyl-5-(3-trifluoromethylphenyloxy)quinoline] | – | – | Increase | Increase | – | – | – | – | 40-50% and 50% | Decrease | ~20
